Target: Carbonic anhydrase 9 (Homo sapiens, UniProt Q16790)
Assay: Inhibition of human carbonic anhydrase 9 assessed as reduction in CO2 hydration incubated for 1 hr by phenol red staining-based stopped flow assay

Row | Ki [nM] | SMILES
1 | 3200 | Cc1c(-c2nnc(SCC(=O)c3ccccc3)[nH]2)nnn1-c1ccc(S(N)(=O)=O)cc1
2 | 2970 | Cc1c(C(=O)NNC(N)=S)nnn1-c1ccc(S(N)(=O)=O)cc1
3 | 2430 | Cc1c(-c2nnc(SCC(=O)c3cccc([N+](=O)[O-])c3)[nH]2)nnn1-c1ccc(S(N)(=O)=O)cc1
4 | 3070 | Cc1ccc(C(=O)CSc2nnc(-c3nnn(-c4ccc(S(N)(=O)=O)cc4)c3C)[nH]2)cc1
5 | 1240 | Cc1c(-c2n[nH]c(=S)[nH]2)nnn1-c1ccc(S(N)(=O)=O)cc1
6 | 294 | Cc1ccc(C(=O)CSc2nnc(-c3nnn(-c4ccc(S(N)(=O)=O)cc4)c3-c3ccccc3)[nH]2)cc1
7 | 177 | NS(=O)(=O)c1ccc(-n2nnc(-c3nnc(SCC(=O)c4ccc(F)cc4)[nH]3)c2-c2ccccc2)cc1
8 | 3020 | Cc1c(-c2nnc(SCC(=O)c3ccc(F)cc3)[nH]2)nnn1-c1ccc(S(N)(=O)=O)cc1
9 | 135 | NS(=O)(=O)c1ccc(-n2nnc(-c3nnc(SCC(=O)c4ccccc4)[nH]3)c2-c2ccccc2)cc1
10 | 734 | NS(=O)(=O)c1ccc(-n2nnc(-c3nnc(SCC(=O)c4ccc(-c5ccccc5)cc4)[nH]3)c2-c2ccccc2)cc1
11 | 226 | Cc1c(-c2nnc(SCC(=O)c3ccc(-c4ccccc4)cc3)[nH]2)nnn1-c1ccc(S(N)(=O)=O)cc1
12 | 204 | NS(=O)(=O)c1ccc(-n2nnc(-c3nnc(SCC(=O)c4ccc([N+](=O)[O-])cc4)[nH]3)c2-c2ccccc2)cc1
13 | 177 | NS(=O)(=O)c1ccc(-n2nnc(-c3nnc(SCC(=O)c4ccc(Br)cc4)[nH]3)c2-c2ccccc2)cc1
14 | 192 | NS(=O)(=O)c1ccc(-n2nnc(-c3nnc(SCC(=O)c4cccc([N+](=O)[O-])c4)[nH]3)c2-c2ccccc2)cc1
15 | 3190 | Cc1c(-c2nnc(SCC(=O)c3ccc(Cl)cc3)[nH]2)nnn1-c1ccc(S(N)(=O)=O)cc1
16 | 1470 | Cc1c(-c2nnc(SCC(=O)c3cccc(Br)c3)[nH]2)nnn1-c1ccc(S(N)(=O)=O)cc1
17 | 2830 | Cc1c(-c2nnc(SCC(=O)c3ccc(Br)cc3)[nH]2)nnn1-c1ccc(S(N)(=O)=O)cc1
18 | 111 | NC(=S)NNC(=O)c1nnn(-c2ccc(S(N)(=O)=O)cc2)c1-c1ccccc1
19 | 477 | NS(=O)(=O)c1ccc(-n2nnc(-c3nnc(SCC(=O)c4ccc(Cl)cc4)[nH]3)c2-c2ccccc2)cc1
20 | 3060 | Cc1c(-c2nnc(SCC(=O)c3ccc([N+](=O)[O-])cc3)[nH]2)nnn1-c1ccc(S(N)(=O)=O)cc1
21 | 51 | NS(=O)(=O)c1ccc(-n2nnc(-c3n[nH]c(=S)[nH]3)c2-c2ccccc2)cc1
22 | 278 | NS(=O)(=O)c1ccc(-n2nnc(-c3nnc(SCC(=O)c4cccc(Br)c4)[nH]3)c2-c2ccccc2)cc1
